According to patent publication US20060127423A1, “Organic compounds” (priority 1998, published 2006):
Values after ≈ are worked out from the molar mass of the structure shown.

How the values were obtained:
[1] = previously reported; cited from earlier work
[2] = Stability of PEG-containing infusion concentrates: degradation products by HPLC; format: physicochemical
Protocol: The stability of aqueous versus nonaqueous polyethyleneglycol infusion concentrates comprising epothilone B at different concentration and various temperatures is determined. Typically, a known amount of epothilone B is dissolved in 1.0 ml of each of the various solvent systems and each solution is sterile filtered and charged to 1 ml white-glass vials with grey rubber stoppers and grey flip-off caps. The stability is analyzed by determining formation of degradation products in each of the infusion concentrates as a function of time and temperature. Each sample is analyzed by HPLC, the sample is prepared by diluting the concentrate with an aqueous medium.

[3] = as above; format: physicochemical; conditions: ethanol/water 59:41 (w/w), 5 mg/ml, 2-8° C.
[4] = Solubility of epothilone B in various solvent systems; format: physicochemical
Protocol: If not indicated otherwise all solubility data refer to T=22° C.

## C/C(=C\c1csc(C)n1)[C@@H]1C[C@@H]2O[C@@H]2CCC[C@H](C)[C@H](O)[C@@H](C)C(=O)C(C)(C)[C@@H](O)CC(=O)O1 [epothilone A]
[1]
  Aqueous solubility: 940 µg/mL

## C/C(=C\c1csc(C)n1)[C@@H]1C[C@@H]2O[C@]2(C)CCC[C@H](C)[C@H](O)[C@@H](C)C(=O)C(C)(C)[C@@H](O)CC(=O)O1 [epothilone B]
[2]; PEG 300, 1 mg/ml, 3 months, 2-8° C.
  Proportion of degradation products: <0.1
[2]; PEG 300/water 90:10 (w/w), 15 mg/ml, 7 months, 2-8° C.
  Proportion of degradation products: <0.1
[2]; PEG 300/water 90:10 (w/w), 15 mg/ml, 7 months, 25° C.
  Proportion of degradation products: 1.0
[2]; PEG 400, 1 mg/ml, 3 months, 2-8° C.
  Proportion of degradation products: <0.1
[2]; PEG 400, 1 mg/ml, 3 months, 25° C.
  Proportion of degradation products: 0.2
[2]; PEG 400/water 90:10 (w/w), 1 mg/ml, 3 months, 2-8° C.
  Proportion of degradation products: <0.1
[2]; PEG 400/water 90:10 (w/w), 1 mg/ml, 3 months, 25° C.
  Proportion of degradation products: 0.4
[3]; 1 month
  Proportion of degradation products: 0.3
[3]; 5 months
  Proportion of degradation products: 0.3
[3]; initial
  Proportion of degradation products: <0.1
[4]; EtOH/H2O (v/v) 10/90, T=22° C.
  Solubility: 1100 µg/mL (≈ 2170 µM)
[4]; EtOH/H2O (v/v) 20/80, T=22° C.
  Solubility: 1300 µg/mL (≈ 2560 µM)
[4]; EtOH/H2O (v/v) 30/70, T=22° C.
  Solubility: 4100 µg/mL (≈ 8080 µM)
[4]; EtOH/H2O (v/v) 50/50, T=22° C.
  Solubility: 27000 µg/mL (≈ 53200 µM)
[4]; EtOH/H2O (v/v) 100/0, T=22° C.
  Solubility: >50000 µg/mL
[4]; H2O (pH 6.0), 4° C.
  Solubility: 190 µg/mL (≈ 374 µM)
[4]; H2O (pH 6.0), T=22° C.
  Solubility: 160 µg/mL (≈ 315 µM)
[4]; H2O, 0.9% glucose, T=22° C.
  Solubility: 160 µg/mL (≈ 315 µM)
[4]; H2O, 5% glucose, T=22° C.
  Solubility: 160 µg/mL (≈ 315 µM)
[4]; H2O, 5% poloxamer 188, T=22° C.
  Solubility: 230 µg/mL (≈ 453 µM)
[4]; H2O, 15% glycerin, T=22° C.
  Solubility: 190 µg/mL (≈ 374 µM)
[4]; PEG 300/H2O (v/v) 30/70, T=22° C.
  Solubility: 900 µg/mL (≈ 1770 µM)
[4]; PEG 300/H2O (v/v) 50/50, T=22° C.
  Solubility: 10000 µg/mL (≈ 19700 µM)
[4]; PEG 300/H2O (v/v) 70/30, T=22° C.
  Solubility: 2500 µg/mL (≈ 4920 µM)
[4]; PEG 300/H2O (v/v) 100/0, T=22° C.
  Solubility: 12000 µg/mL (≈ 23600 µM)
[4]; PEG 400/H2O (v/v) 30/70, T=22° C.
  Solubility: 800 µg/mL (≈ 1580 µM)
[4]; PEG 400/H2O (v/v) 50/50, T=22° C.
  Solubility: 11000 µg/mL (≈ 21700 µM)
[4]; PEG 400/H2O (v/v) 70/30, T=22° C.
  Solubility: 2300 µg/mL (≈ 4530 µM)
[4]; PEG 400/H2O (v/v) 100/0, T=22° C.
  Solubility: 30000 µg/mL (≈ 59100 µM)
[4]; PEG/water, propyleneglycol/water, or EtOH/water mixtures
  Solubility relative to water: significantly higher solubility
[4]; Phosphate buffer pH 7.4, 4° C.
  Solubility: 190 µg/mL (≈ 374 µM)
[4]; Phosphate buffer pH 7.4, T=22° C.
  Solubility: 160 µg/mL (≈ 315 µM)
[4]; Propylene glycol/H2O (v/v) 30/70, T=22° C.
  Solubility: 600 µg/mL (≈ 1180 µM)
[4]; Propylene glycol/H2O (v/v) 50/50, T=22° C.
  Solubility: 1600 µg/mL (≈ 3150 µM)
[4]; Propylene glycol/H2O (v/v) 70/30, T=22° C.
  Solubility: 10400 µg/mL (≈ 20500 µM)
[4]; Propylene glycol/H2O (v/v) 100/0, T=22° C.
  Solubility: 26000 µg/mL (≈ 51200 µM)
[4]; water at neutral pH
  Solubility in water: about 160 mg/l
